Structures are written as SMILES.

T1 sequence (P22303 whole entry): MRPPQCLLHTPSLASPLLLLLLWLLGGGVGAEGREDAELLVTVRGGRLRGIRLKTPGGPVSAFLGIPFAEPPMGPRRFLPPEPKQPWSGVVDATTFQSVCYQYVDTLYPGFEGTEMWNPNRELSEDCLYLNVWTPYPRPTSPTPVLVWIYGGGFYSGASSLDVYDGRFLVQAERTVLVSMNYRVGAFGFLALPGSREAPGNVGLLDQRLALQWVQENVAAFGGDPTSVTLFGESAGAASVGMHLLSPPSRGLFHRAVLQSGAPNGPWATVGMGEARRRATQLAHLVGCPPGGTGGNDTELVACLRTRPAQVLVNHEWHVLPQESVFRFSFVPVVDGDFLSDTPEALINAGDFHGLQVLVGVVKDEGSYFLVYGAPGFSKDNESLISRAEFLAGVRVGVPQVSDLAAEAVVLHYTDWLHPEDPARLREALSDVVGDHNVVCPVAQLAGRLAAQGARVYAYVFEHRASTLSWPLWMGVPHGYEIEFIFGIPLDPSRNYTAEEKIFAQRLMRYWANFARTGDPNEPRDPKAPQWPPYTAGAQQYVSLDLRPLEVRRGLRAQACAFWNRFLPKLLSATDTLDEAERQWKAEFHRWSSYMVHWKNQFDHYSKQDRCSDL

The first test addresses T1, Acetylcholinesterase (Homo sapiens, UniProt P22303). The test can be described thus: Inhibition of AChE by Ellman's method.
What is called IC50 is the concentration that gives 50% inhibition. Low values mean inhibition by little substance, high ones a need for much substance. As to `CC[C@H]1C[C@@H]2CN3CCc4c([nH]c5cc([C@H]6C[C@H]7C(C(=O)OC)[C@H](Cc8c6[nH]c6ccccc86)N(C)C[C@H]7CC)ccc45)[C@](C(=O)OC)(C2)[C@H]13` (stereo partly drawn), the IC50 was determined as 0.071 µM.

Turning to `CC[C@H]1C[C@@H]2C[C@H]3c4[nH]c5cc([C@@H]6C[C@H]7C(C(=O)OC)[C@@H](Cc8c6[nH]c6ccccc86)N(C)C[C@H]7CC)ccc5c4CCN(C2)[C@@H]13` (stereo partly drawn), inhibition was half-maximal at 0.227 µM (IC50). This IC50 is about 3.2-fold higher than that of the compound before.

The target in the next test is Acetylcholinesterase (Electrophorus electricus, UniProt O42275). The test can be described thus: Inhibition of electric eel AChE using acetylcholine iodide as substrate measured every 5 sec for 2 mins by Ellman's method. (In general: DTNB colorimetry detects thiols as they appear.)
Sequence of Acetylcholinesterase (Electrophorus electricus, UniProt O42275) (O42275 whole entry): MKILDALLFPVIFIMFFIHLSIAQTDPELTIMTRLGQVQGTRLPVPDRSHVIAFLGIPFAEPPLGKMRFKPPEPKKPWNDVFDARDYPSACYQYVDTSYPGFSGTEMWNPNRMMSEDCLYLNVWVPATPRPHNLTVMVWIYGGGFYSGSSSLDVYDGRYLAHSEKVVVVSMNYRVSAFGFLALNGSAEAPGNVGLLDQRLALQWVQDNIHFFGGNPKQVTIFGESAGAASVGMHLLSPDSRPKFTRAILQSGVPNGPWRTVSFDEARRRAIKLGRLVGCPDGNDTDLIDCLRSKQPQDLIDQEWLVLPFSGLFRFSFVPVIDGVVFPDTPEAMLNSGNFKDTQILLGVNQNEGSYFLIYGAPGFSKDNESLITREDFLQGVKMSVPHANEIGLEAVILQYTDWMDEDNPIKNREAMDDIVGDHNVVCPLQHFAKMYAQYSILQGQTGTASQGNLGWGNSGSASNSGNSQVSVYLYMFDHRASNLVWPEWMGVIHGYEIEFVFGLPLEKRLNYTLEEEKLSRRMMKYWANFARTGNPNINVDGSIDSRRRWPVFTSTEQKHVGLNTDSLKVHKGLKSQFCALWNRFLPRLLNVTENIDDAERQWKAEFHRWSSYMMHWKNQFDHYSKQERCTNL
As to `COc1ccc2c(c1)[nH]c1c(C)nccc12` [HARMINE], the IC50 was 22.9 µM.

The compound `COc1ccc2c(ccc[n+]2Cc2ccccc2)c1` showed an IC50 of 2.46 µM.

In the case of `Cc1nccc2c1[nH]c1ccccc12` [HARMAN], the 50% inhibitory concentration (IC50) is 20.9 µM.

For the compound `COc1ccc2c(ccc[n+]2C)c1`, the IC50 came out at 7.67 µM.

On to `CC1=NCCc2c1[nH]c1cc(O)ccc21` [HARMALOL], for which the IC50 came out at 11.3 µM.

`Cc1nccc2c1[nH]c1cc(O)ccc12` registered an IC50 of 8.02 µM. This IC50 and that of the compound before are within 1.5-fold of each other.

With `COc1ccc2c3c([nH]c2c1)C(C)=NCC3` [HARMALINE], the IC50 turned out to be 4.9 µM. Against the preceding compound, the IC50 is about 1.6-fold lower.

Regarding `c1ccc2c3c([nH]c2c1)CNCC3` [TRYPTOLINE], the half-maximal inhibitory concentration (IC50) turned out to be 97.1 µM.

`COc1ccc2[nH]c3c(c2c1)CCNC3` registered an IC50 of 227 µM.

The target of a further test is Acetylcholinesterase (Electrophorus electricus) (UniProt O42275). Kind of test: Inhibition of electric eel AChE using acetylcholine iodide as substrate at 6.2 X 10^-4 M measured every 5 sec for 2 mins by Ellman's method.
Sequence of Acetylcholinesterase (Electrophorus electricus) (O42275 24-633 limits assumed): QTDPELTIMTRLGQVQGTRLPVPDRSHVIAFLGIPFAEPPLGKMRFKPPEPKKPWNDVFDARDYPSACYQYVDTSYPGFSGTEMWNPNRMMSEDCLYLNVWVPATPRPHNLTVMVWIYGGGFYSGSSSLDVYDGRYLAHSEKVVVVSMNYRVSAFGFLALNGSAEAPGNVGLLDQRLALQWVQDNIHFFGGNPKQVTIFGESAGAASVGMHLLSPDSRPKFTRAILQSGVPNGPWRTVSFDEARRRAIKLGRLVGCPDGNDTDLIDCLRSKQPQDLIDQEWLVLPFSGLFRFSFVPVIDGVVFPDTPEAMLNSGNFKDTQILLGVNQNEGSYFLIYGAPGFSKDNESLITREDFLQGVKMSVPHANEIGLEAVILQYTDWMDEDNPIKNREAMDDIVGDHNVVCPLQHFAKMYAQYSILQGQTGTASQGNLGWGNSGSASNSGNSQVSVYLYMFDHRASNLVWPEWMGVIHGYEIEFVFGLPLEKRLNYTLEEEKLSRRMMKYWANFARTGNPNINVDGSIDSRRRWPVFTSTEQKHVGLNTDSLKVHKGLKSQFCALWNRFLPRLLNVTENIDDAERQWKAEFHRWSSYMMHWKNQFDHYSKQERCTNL
Broadly, the inhibition is the share of the control response that was lost under treatment. A lower inhibition goes with a weak effect. Regarding `O=C(O)c1cccc2cc[nH]c12`, the inhibition was found to be 23.4%.

Take `O=C(O)c1ccc2cc[nH]c2c1`: the inhibition was 28.5%.

Turning to `O=C(O)c1cccc2[nH]ccc12`, the inhibition is 36.8%.

With `O=C(O)c1ccc2[nH]ccc2c1`, the inhibition came out at 29.1%.

Another test concerns the target T1, Acetylcholinesterase. The test can be described thus: Inhibition of human AChE by Ellman's method.
`COc1ccc2c(ccc[n+]2Cc2ccccc2)c1` registered an IC50 of 5.29 µM.

In turn, `COc1ccc2c(ccc[n+]2C)c1` yielded an IC50 of 49.7 µM.

On to `COc1ccc2c3c([nH]c2c1)C(C)=NCC3` [HARMALINE], for which the half-inhibitory concentration (IC50) was found to be 23.7 µM.

Source of the values: ChEMBL document CHEMBL2016507, “Prospective acetylcholinesterase inhibitory activity of indole and its analogs” (Bioorg Med Chem Lett, 2012).
